Assays:
Assay in all cases: inhibition of pNPFuc hydrolysis, A405
Type in all cases: biochemical
AmGH95B = molecular target: T1, AmGH95B (Akkermansia muciniphila, UniProt B2UR61)
T1 construct: gene Amuc_1120; mature peptide lacking the signal peptide
T1 sequence (B2UR61 23-796): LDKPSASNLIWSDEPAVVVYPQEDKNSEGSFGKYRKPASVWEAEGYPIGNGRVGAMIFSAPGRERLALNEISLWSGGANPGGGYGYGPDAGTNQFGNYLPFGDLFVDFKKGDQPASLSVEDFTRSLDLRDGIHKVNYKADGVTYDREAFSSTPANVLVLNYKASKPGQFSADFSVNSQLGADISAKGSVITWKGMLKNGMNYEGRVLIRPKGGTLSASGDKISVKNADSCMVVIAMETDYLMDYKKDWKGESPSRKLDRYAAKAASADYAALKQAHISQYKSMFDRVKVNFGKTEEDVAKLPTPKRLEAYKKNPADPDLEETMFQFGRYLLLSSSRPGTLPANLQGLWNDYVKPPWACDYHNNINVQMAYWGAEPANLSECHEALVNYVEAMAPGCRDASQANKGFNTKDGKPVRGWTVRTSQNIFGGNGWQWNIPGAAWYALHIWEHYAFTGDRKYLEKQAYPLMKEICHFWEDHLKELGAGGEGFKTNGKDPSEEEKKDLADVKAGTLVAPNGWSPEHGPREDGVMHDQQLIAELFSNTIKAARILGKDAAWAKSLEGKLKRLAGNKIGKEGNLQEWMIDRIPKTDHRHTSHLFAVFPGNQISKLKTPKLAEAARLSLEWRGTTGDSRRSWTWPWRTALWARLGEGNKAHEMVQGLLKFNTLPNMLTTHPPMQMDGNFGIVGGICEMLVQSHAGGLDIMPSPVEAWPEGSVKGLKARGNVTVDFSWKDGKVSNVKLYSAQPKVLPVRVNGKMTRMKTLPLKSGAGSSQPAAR

AmGH29B = molecular target: T2, AmGH29B (Akkermansia muciniphila, UniProt B2ULU6)
T2 construct: gene Amuc_0146; mature peptide lacking the signal peptide
T2 sequence (B2ULU6 27-711): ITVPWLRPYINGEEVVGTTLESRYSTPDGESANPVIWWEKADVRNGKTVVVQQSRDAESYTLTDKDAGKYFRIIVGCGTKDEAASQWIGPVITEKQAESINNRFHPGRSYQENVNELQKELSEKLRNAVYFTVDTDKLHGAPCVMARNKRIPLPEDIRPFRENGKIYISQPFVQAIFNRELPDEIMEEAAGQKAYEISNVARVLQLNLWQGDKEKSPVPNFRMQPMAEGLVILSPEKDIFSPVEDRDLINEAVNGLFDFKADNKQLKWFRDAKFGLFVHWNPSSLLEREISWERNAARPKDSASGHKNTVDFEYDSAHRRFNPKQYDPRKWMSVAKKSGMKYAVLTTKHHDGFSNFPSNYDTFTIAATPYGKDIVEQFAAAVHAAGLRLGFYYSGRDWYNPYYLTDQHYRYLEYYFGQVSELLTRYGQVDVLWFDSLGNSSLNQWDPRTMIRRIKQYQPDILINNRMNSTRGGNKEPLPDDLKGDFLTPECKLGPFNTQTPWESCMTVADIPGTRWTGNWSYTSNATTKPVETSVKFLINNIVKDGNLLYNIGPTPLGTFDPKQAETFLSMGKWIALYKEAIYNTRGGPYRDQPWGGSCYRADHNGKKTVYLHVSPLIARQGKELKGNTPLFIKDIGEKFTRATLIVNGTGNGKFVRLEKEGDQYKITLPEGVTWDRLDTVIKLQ

AmGH29A = molecular target: T3, AmGH29A (Akkermansia muciniphila, UniProt B2UL68)
T3 construct: gene Amuc_0010; mature peptide lacking the signal peptide
T3 sequence (B2UL68 20-538): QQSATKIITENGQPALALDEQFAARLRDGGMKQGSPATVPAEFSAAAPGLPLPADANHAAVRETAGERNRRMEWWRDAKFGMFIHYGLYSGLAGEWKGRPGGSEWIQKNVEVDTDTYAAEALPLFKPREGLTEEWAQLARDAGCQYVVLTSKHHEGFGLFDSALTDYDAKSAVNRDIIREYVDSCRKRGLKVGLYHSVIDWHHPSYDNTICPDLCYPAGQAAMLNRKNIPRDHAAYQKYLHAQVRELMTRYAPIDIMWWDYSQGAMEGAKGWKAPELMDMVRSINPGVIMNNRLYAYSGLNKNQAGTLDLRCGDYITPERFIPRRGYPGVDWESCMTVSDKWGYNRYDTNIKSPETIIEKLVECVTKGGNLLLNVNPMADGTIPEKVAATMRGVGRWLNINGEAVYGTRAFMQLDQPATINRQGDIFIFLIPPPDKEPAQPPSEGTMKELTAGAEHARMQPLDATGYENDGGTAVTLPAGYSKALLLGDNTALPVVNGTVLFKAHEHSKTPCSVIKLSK

AmGH29D = molecular target: T4, AmGH29D (Akkermansia muciniphila, UniProt B2UQE4)
T4 construct: gene Amuc_0846; mature peptide lacking the signal peptide
T4 sequence (B2UQE4 25-704): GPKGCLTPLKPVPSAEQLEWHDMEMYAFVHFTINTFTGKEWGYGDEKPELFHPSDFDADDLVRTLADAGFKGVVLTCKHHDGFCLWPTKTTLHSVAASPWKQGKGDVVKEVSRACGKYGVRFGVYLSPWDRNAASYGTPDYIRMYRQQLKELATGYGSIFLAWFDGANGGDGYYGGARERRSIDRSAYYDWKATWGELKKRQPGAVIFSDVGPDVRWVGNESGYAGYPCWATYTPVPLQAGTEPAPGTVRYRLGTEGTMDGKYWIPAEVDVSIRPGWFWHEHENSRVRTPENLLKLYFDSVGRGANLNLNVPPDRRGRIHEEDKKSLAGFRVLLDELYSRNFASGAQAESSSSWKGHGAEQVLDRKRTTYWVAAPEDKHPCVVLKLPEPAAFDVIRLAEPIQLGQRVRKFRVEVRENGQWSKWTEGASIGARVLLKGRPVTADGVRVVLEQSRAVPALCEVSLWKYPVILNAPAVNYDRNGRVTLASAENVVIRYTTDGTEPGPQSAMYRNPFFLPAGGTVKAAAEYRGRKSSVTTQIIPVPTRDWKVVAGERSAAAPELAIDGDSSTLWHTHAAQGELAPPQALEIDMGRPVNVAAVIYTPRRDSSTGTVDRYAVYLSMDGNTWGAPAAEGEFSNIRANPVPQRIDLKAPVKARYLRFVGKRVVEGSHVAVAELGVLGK

Measured: IC50

C[C@@H]1NC[C@@H](O)[C@H](O)[C@@H]1O [DFJ, 1-Deoxyfuconojirimycin]
< 54 µM: all assays above

From article PMC10067855, “Sialidases and fucosidases of Akkermansia muciniphila are crucial for growth on mucin and nutrient sharing with mucus-associated gut bacteria” (Nature Communications, 2023)
